Data reported in paper PMC3956125 (Molecular cancer therapeutics, 2013).

What was measured:
786-O cells [1] = test: Western blot / immunofluorescence of marker proteins; type: cell-based, human
A498 tumor model = test: subcutaneous xenograft anti-tumor activity; type: in vivo, mouse; details: 4 weeks
CYP1A2 = molecular target: T1, CYP1A2 (Homo sapiens, UniProt P05177); test: multiple CYP assay in human liver microsomes; details: 10 μM
T1 sequence (P05177 1-516): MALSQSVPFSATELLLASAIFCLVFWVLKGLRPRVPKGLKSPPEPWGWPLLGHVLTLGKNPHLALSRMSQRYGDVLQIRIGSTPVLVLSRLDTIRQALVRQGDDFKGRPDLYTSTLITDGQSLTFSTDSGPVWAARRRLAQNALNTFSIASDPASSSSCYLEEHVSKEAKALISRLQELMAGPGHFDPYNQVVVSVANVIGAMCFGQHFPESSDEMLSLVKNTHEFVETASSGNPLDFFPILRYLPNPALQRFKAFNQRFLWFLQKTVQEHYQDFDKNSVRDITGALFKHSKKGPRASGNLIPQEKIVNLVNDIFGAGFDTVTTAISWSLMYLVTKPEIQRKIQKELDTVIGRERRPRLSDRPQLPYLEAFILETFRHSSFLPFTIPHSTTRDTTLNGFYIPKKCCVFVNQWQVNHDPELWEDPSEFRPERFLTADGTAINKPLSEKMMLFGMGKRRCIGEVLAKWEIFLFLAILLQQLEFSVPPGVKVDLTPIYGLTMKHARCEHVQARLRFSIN

A498 cells [2] = test: Western blot / immunofluorescence of marker proteins; type: cell-based, human
metabolic stability = details: human liver microsomes, after 60 min of incubation
A498 cells [3] = test: Annexin-FITC/PI apoptosis assay; type: cell-based, human; details: 48 hours
CYP2B6 = molecular target: T2, CYP2B6 (Homo sapiens, UniProt P20813); test: multiple CYP assay in human liver microsomes; details: 10 μM
T2 sequence (P20813 1-491): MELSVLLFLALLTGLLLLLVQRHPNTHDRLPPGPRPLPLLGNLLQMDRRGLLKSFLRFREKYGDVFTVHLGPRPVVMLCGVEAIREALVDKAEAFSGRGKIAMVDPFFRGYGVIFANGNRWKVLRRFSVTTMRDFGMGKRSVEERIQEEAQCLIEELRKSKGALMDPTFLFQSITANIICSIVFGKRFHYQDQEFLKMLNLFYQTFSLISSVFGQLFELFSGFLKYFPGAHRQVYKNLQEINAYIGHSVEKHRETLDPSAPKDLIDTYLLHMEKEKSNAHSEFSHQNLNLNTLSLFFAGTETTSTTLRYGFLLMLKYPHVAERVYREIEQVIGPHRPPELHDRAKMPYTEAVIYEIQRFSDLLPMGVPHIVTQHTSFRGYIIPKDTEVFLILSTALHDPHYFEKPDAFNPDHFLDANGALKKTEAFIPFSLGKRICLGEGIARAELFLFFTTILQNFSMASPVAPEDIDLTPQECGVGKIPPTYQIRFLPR

SKOV3 ovarian cancer = details: SKOV3 xenograft; cited from earlier work
[4] = test system: pancreatic and ovarian cancer cells; details: cited from earlier work
hERG = hERG (Homo sapiens, UniProt Q12809); test: hERG inhibition; type: cell-based; details: read-out: IC50 for hERG inhibition; patch-clamp
hERG, sequence (Q12809 whole entry): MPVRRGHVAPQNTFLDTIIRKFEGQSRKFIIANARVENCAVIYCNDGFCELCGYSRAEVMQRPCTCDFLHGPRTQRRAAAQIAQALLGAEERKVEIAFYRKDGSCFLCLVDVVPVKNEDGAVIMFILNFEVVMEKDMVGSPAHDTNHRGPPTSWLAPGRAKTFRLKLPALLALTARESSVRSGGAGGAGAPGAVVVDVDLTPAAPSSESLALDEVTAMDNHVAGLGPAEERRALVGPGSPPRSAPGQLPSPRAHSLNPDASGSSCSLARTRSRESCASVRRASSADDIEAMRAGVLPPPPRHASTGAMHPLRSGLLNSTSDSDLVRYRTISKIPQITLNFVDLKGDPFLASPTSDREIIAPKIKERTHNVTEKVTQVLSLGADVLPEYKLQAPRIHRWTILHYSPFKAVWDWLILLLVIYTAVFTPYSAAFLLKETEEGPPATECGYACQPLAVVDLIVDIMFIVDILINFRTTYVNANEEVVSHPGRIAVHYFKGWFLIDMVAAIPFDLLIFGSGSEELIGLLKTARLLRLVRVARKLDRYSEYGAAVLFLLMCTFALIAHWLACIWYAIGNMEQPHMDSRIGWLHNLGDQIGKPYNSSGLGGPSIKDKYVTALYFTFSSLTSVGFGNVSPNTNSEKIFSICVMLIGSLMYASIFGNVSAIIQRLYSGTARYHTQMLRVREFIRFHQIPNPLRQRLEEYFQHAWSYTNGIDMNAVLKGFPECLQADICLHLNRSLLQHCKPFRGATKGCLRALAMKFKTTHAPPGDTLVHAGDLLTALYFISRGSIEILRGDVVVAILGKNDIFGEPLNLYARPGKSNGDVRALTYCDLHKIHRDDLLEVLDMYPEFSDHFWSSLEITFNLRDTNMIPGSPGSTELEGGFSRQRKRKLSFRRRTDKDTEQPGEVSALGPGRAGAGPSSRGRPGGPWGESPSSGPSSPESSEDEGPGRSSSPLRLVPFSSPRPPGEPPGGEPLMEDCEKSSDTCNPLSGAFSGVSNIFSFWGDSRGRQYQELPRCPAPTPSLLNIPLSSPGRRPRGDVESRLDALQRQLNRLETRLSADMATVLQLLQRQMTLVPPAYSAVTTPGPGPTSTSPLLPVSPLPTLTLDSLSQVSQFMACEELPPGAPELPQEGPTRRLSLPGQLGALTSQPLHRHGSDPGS

CYP3A4 = CYP3A4 (Homo sapiens, UniProt P08684); test: multiple CYP assay in human liver microsomes; details: 10 μM
CYP3A4, sequence (P08684 whole entry): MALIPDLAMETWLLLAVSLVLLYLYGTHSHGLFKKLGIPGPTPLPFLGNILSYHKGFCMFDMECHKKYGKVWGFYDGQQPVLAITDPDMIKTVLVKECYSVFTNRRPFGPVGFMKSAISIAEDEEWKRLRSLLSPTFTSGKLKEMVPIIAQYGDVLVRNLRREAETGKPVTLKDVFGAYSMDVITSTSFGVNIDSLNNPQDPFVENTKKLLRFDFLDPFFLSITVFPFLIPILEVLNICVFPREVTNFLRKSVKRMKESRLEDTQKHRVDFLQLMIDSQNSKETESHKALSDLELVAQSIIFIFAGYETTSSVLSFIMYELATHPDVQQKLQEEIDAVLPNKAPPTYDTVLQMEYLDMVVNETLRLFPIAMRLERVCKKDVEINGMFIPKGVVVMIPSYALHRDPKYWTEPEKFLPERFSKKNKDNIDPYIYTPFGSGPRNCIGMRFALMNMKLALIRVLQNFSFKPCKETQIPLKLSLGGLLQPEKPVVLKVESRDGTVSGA

786-O cells [5] = test: 3H-thymidine incorporation proliferation assay; type: cell-based, human
CYP2C9 = CYP2C9 (Homo sapiens, UniProt P11712); test: multiple CYP assay in human liver microsomes; details: 10 μM
CYP2C9, sequence (P11712 whole entry): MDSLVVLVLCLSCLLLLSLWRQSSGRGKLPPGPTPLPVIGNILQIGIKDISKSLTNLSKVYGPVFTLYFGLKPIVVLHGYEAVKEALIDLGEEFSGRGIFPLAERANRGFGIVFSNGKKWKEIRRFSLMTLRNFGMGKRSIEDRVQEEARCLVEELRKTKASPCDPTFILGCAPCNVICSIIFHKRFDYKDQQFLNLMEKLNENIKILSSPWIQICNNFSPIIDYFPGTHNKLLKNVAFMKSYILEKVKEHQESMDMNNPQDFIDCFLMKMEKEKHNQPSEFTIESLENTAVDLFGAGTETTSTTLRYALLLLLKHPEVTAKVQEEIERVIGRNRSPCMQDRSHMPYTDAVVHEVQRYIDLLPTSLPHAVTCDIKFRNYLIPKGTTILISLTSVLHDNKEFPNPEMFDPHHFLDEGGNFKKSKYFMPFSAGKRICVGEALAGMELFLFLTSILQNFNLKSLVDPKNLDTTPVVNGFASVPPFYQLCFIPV

786-O tumor model = test: subcutaneous xenograft anti-tumor activity; type: in vivo, mouse; details: 4 weeks
A498 cells [6] = test: cell cycle analysis by flow cytometry; type: cell-based, human; details: increasing concentrations, 24 hours
786-O cells [7] = test: intracellular glucose measurement; type: cell-based, human; details: 24 hours
CYP2D6 = CYP2D6 (Homo sapiens, UniProt P10635); test: multiple CYP assay in human liver microsomes; details: 10 μM
CYP2D6, sequence (P10635 whole entry): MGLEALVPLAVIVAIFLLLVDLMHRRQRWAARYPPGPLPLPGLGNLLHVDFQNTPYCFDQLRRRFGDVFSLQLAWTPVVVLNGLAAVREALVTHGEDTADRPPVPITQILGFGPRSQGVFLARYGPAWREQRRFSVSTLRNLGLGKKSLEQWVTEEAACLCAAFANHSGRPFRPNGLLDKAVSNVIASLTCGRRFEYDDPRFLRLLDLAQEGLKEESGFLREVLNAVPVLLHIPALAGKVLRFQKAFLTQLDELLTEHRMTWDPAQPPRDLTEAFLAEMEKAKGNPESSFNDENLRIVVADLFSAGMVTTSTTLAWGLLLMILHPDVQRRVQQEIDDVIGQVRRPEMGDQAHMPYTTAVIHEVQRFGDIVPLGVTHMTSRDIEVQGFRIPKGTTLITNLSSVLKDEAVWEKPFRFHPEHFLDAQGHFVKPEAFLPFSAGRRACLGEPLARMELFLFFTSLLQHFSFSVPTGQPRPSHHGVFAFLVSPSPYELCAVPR

786-O cells [8] = test: Annexin-FITC/PI apoptosis assay; type: cell-based, human; details: 48 hours
panel of 320 kinases = test: kinase selectivity profile, single dose; type: biochemical
A498 cells [9] = test: intracellular glucose measurement; type: cell-based, human; details: 24 hours
[10] = pharmacokinetic analysis of plasma levels; details: Sprague-Dawley rats
786-O cells [11] = test: cell cycle analysis by flow cytometry; type: cell-based, human; details: increasing concentrations, 24 hours
CYP2C19 = CYP2C19 (Homo sapiens, UniProt P33261); test: multiple CYP assay in human liver microsomes; details: 10 μM
CYP2C19, sequence (P33261 whole entry): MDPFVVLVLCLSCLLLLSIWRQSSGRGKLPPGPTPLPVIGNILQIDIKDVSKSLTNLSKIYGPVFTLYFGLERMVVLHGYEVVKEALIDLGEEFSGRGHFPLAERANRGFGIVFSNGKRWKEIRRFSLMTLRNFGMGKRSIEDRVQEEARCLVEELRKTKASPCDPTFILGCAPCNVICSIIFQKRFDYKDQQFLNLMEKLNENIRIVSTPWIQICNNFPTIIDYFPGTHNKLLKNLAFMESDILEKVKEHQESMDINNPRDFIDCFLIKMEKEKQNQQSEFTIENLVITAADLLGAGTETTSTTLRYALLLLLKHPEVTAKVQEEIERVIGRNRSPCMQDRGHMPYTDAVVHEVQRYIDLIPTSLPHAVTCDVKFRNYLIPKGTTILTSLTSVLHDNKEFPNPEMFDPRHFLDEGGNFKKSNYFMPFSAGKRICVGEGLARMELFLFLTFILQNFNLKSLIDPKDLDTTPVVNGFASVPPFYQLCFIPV

A498 cells [12] = test: 3H-thymidine incorporation proliferation assay; type: cell-based, human
[13] = 20 mg/kg i.p. three times a week, p<0.05
[14] = tumor tissue sections, 20 mg/kg i.p.

Molecule: Cn1cc(C2=C(c3coc4ccc(F)cc34)C(=O)NC2=O)c2cc3c(cc21)OCO3 [9-ING-41]
- phosphorylation of AMPK-α and AMPK-β (786-O cells [1]; 24-48 hours, Western blot): increase in phosphorylation
- cyclin D1 protein expression (786-O cells [1]; 24 hours, Western blot): down-regulated
- Id-1 expression (786-O cells [1]; 48 hours, Western blot): decreased
- Ksp-cadherin expression (786-O cells [1]; 48 hours, Western blot): dose-dependent increase
- LC3B levels (autophagy) (786-O cells [1]; Western blot and immunofluorescence): increased levels
- tumor growth vs control group (A498 tumor model; [13]): significant reduction of tumor growth
- abundance of Ki67-positive nuclei vs control group (A498 tumor model; [14]): significantly lower
- CYP activity (CYP1A2): ≥ 50 % of the control
- phosphorylation of AMPK-α and AMPK-β (A498 cells [2]; 24-48 hours, A498, Western blot): increase in phosphorylation
- cyclin D1 protein expression (A498 cells [2]; 24 hours, A498, Western blot): down-regulated
- Id-1 expression (A498 cells [2]; 48 hours, A498, Western blot): decreased
- Ksp-cadherin expression (A498 cells [2]; 48 hours, A498, Western blot): dose-dependent increase
- LC3B levels (autophagy) (A498 cells [2]; A498, Western blot and immunofluorescence): increased levels
- parent compound remained (metabolic stability): 78.9%
- induction of apoptosis (A498 cells [3]): No significant induction of apoptosis
- CYP activity (CYP2B6): ≥ 50 % of the control
- tumor progression in vivo (SKOV3 ovarian cancer): attenuate tumor progression
- antiproliferative activity [4]: potent antiproliferative agent
- IC50 (hERG): 21 µM
- CYP activity (CYP3A4): 32 % of the control
- inhibition in proliferation (786-O cells [5]; 500 nM, 72 hours): ~ 40%
- inhibition of proliferation (786-O cells [5]; 1000 nM, 72 hours): almost complete inhibition
- IC50 (786-O cells [5]; read-out: cell growth inhibition IC50): < 1 µM
- CYP activity (CYP2C9): ≥ 50 % of the control
- tumor growth vs control group (786-O tumor model; [13]): significant reduction of tumor growth
- abundance of Ki67-positive nuclei vs control group (786-O tumor model; [14]): significantly lower
- fraction of cells in the S phase (A498 cells [6]): decreased significantly
- intracellular glucose (786-O cells [7]): dose-dependent increase
- CYP activity (CYP2D6): ≥ 50 % of the control
- percentage of early apoptotic cells (786-O cells [8]; 1000 nM, 786-O (DMSO 5.54%)): 11.6%
- induction of apoptosis (786-O cells [8]; 786-O): No significant induction of apoptosis
- number of kinases with less than 50% remaining activity (panel of 320 kinases; 10 μM single dose, duplicates, panel of 320 kinases): 35
- discrimination between GSK-3α and GSK-3β (panel of 320 kinases; SI Table S1, 10 μM): inhibits them equally
- intracellular glucose (A498 cells [9]): dose-dependent increase
- elimination half-life [10]: 4.85 h
- volumes of distribution [10]: ≥ 10 L/kg
- fraction of cells in the S phase (786-O cells [11]): decreased significantly
- CYP activity (CYP2C19): ≥ 50 % of the control
- inhibition in proliferation (A498 cells [12]; 500 nM, 72 hours, A498): ~ 40%
- inhibition of proliferation (A498 cells [12]; 1000 nM, 72 hours, A498): almost complete inhibition
- IC50 (A498 cells [12]; read-out: cell growth inhibition IC50, A498): < 1 µM

Molecule: GSK-3β siRNA: Qiagen siRNA against GSK-3β, target sequence 5'-CCCAAATGTCAAACTACCAAA-3' (sense CAAAUGUCAAACUACCAAATT; antisense UUUGGUAGUUUGACAUUUGGG; chemistry not given here) [reference compound]
- inhibition of proliferation (786-O cells [5]; siRNA 100 nM, 72 hours, p<0.01): slight yet significant inhibition
- inhibition of proliferation (A498 cells [12]; siRNA 100 nM, 72 hours, A498, p<0.01): slight yet significant inhibition
